Source: US12697313B2, “Methods of treating anemia using formoterol or a pharmaceutically acceptable salt thereof” (Dana-Farber Cancer Institute, Inc., priority 2022, dated 2026)
Where a name gives a salt, the structure may show the parent alone.

Tested on: phenylhydrazine (PHZ)-treated mice
Assay: FF/Arf i.p. in PHZ-treated mice at sub-lethal dose of 60 mg/kg
Format: in vivo

**Q.** Which results are given for `COc1ccc(C[C@@H](C)NC[C@H](O)c2ccc(O)c(NC=O)c2)cc1` [Arf, N-[2-hydroxy-5-[(1R)-1-hydroxy-2-[[(1R)-2-(4-methoxyphenyl)-1-methylethyl]amino]ethyl]phenyl]-formamide, (2R,3R)-2,3-dihydroxybutanedioate (1:1 salt)]?
**A.** transferrin receptor expression in CFU-e derived from BMPs (FIG. 39B): transferrin receptor expression is enhanced; Hemoglobin (Hb) in peripheral blood (after 7 and 14 days of i.p., FIG. 35): increase Hemoglobin (Hb); RBC parameters (HCT % and RBCs) in peripheral blood (after 7 days of i.p., FIG. 34): increases RBC parameters; LS-K and LSK cells in bone marrow progenitors (after 14 days of i.p., FIG. 36A-36B): increase LSK, LS-K, and mitochondrial activity; mitochondrial membrane potential (TMRE staining) in bone marrow progenitors (after 14 days of i.p., FIG. 36C): increase LSK, LS-K, and mitochondrial activity; megakaryocyte erythrocyte progenitors (MEP) in BM (after 14 days of i.p., FIG. 37A): increase megakaryocyte erythrocyte progenitors (MEP); body weights (i.p., PHZ 60 mg/kg, FIG. 32): enhances body weights; platelets and WBCs in peripheral blood (i.p., PHZ 60 mg/kg, FIG. 33): do not affect platelets and WBCs
